≈ marks a conversion by molar mass, not a printed value.
Tests used:
Format in all cases: cell-based
[1] = tested on: Staphylococcus aureus S13E
Procedure: (§1) The MIC's were determined using a standard broth micro-dilution assay.

[2] = tested on: Staphylococcus aureus SA1199B
Procedure: as §1

[3] = tested on: Staphylococcus aureus SA1199A; assay: MIC, standard broth micro-dilution assay
Procedure: as §1

[4] = tested on: Staphylococcus aureus SA1199; assay: MIC, standard broth micro-dilution assay
Procedure: as §1

[5] = tested on: Staphylococcus haemolyticus 105; assay: MIC, standard broth micro-dilution assay
Procedure: as §1

[6] = tested on: Escherichia coli EC14; assay: MIC, standard broth micro-dilution assay
Procedure: as §1

[7] = tested on: Staphylococcus aureus 491; assay: MIC, standard broth micro-dilution assay
Procedure: as §1

[8] = tested on: Entercoccus faecium 180-1; assay: MIC, standard broth micro-dilution assay
Procedure: as §1

[9] = tested on: Haemophilus influenzae RD; assay: MIC, standard broth micro-dilution assay
Procedure: as §1

[10] = tested on: Streptococcus pneumoniae P1; assay: MIC, standard broth micro-dilution assay
Procedure: as §1

[11] = tested on: Staphylococcus epidermidis 270; assay: MIC, standard broth micro-dilution assay
Procedure: as §1

[12] = tested on: Entercoccus faecium 180; assay: MIC, standard broth micro-dilution assay
Procedure: as §1

[13] = tested on: Staphylococcus haemolyticus 415; assay: MIC, standard broth micro-dilution assay
Procedure: as §1

[14] = tested on: Staphylococcus aureus 447; assay: MIC, standard broth micro-dilution assay
Procedure: as §1

[15] = tested on: Staphylococcus aureus 446; assay: MIC, standard broth micro-dilution assay
Procedure: as §1

[16] = tested on: Staphylococcus aureus 489; assay: MIC, standard broth micro-dilution assay
Procedure: as §1

[17] = tested on: Staphylococcus aureus X778; assay: MIC, standard broth micro-dilution assay
Procedure: as §1

[18] = tested on: Staphylococcus aureus X400; assay: MIC, standard broth micro-dilution assay
Procedure: as §1

[19] = tested on: Entercoccus faecalis 2041; assay: MIC, standard broth micro-dilution assay
Procedure: (§2) The formula I compounds have in vitro and in vivo activity against Gram-positive pathogenic bacteria. The MIC's were determined using a standard broth micro-dilution assay.

[20] = tested on: Entercoccus faecalis 276; assay: MIC, standard broth micro-dilution assay
Procedure: as §2

[21] = tested on: Entercoccus gallinarum 245; assay: MIC, standard broth micro-dilution assay
Procedure: as §2

Row | Structure (SMILES) | MIC [1] [µg/mL] | MIC [2] [µg/mL] | MIC [3] [µg/mL] | MIC [4] [µg/mL] | MIC [5] [µg/mL] | MIC [6] [µg/mL] | MIC [7] [µg/mL] | MIC [8] [µg/mL] | MIC [9] [µg/mL] | MIC [10] [µg/mL] | MIC [11] [µg/mL] | MIC [12] [µg/mL] | MIC [13] [µg/mL] | MIC [14] [µg/mL] | MIC [15] [µg/mL] | MIC [16] [µg/mL] | MIC [17] [µg/mL] | MIC [18] [µg/mL] | MIC [19] [µg/mL] | MIC [20] [µg/mL] | also measured
1 | CNC(CC(C)C)C(=O)NC1C(=O)NC(CC(N)=O)C(=O)NC2C(=O)NC3C(=O)NC(C(=O)NC(C(=O)O)c4cc(O)cc(O)c4-c4cc3ccc4O)C(OC3CC(C)(N)C(O)C(C)O3)c3ccc(c(Cl)c3)Oc3cc2cc(c3OC2OC(CO)C(O)C(O)C2OC2CC(C)(NCc3ccc4c(c3)OCO4)C(O)C(C)O2)Oc2ccc(cc2Cl)C1O (stereo not drawn) [Compound 48, 3,4-methylenedioxylbenzyl] | ≤ 0.06 | 1 (≈ 0.579 µM) | ≤ 0.06 | 0.25 (≈ 0.145 µM) | 2 (≈ 1.16 µM) | > 64 | 0.25 (≈ 0.145 µM) | ≤ 0.06 | > 64 | ≤ 0.06 | 1 (≈ 0.579 µM) | 1 (≈ 0.579 µM) | 8 (≈ 4.63 µM) | 2 (≈ 1.16 µM) | 0.125 (≈ 0.0724 µM) | ≤ 0.06 | ≤ 0.06 | ≤ 0.06 | ≤ 0.06 | ≤ 0.06 | MIC [21]: 1 µg/mL (≈ 0.579 µM)
2 | CNC(CC(C)C)C(=O)NC1C(=O)NC(CC(N)=O)C(=O)NC2C(=O)NC3C(=O)NC(C(=O)NC(C(=O)O)c4cc(O)cc(O)c4-c4cc3ccc4O)C(OC3CC(C)(N)C(O)C(C)O3)c3ccc(c(Cl)c3)Oc3cc2cc(c3OC2OC(CO)C(O)C(O)C2OC2CC(C)(NCc3ccc(C(c4ccccc4)c4ccccc4)cc3)C(O)C(C)O2)Oc2ccc(cc2Cl)C1O (stereo not drawn) [Compound 46, 4-diphenylmethylbenzyl] | 2 (≈ 1.08 µM) | 2 (≈ 1.08 µM) | 0.5 (≈ 0.27 µM) | 2 (≈ 1.08 µM) | 2 (≈ 1.08 µM) | > 64 | 2 (≈ 1.08 µM) | ≤ 0.06 | > 64 | ≤ 0.06 | 2 (≈ 1.08 µM) | 0.5 (≈ 0.27 µM) | 2 (≈ 1.08 µM) | 2 (≈ 1.08 µM) | 1 (≈ 0.541 µM) | 1 (≈ 0.541 µM) | 2 (≈ 1.08 µM) | 2 (≈ 1.08 µM) | 1 (≈ 0.541 µM) | 0.5 (≈ 0.27 µM) | MIC [21]: 0.25 µg/mL (≈ 0.135 µM)
3 | CNC(CC(C)C)C(=O)NC1C(=O)NC(CC(N)=O)C(=O)NC2C(=O)NC3C(=O)NC(C(=O)NC(C(=O)O)c4cc(O)cc(O)c4-c4cc3ccc4O)C(OC3CC(C)(N)C(O)C(C)O3)c3ccc(c(Cl)c3)Oc3cc2cc(c3OC2OC(CO)C(O)C(O)C2OC2CC(C)(NCc3cc(-c4ccccc4)nc4ccc(OC)cc34)C(O)C(C)O2)Oc2ccc(cc2Cl)C1O (stereo not drawn) [Compound 45, 4-[2-phenyl-6-methoxy]quinoylmethyl] | 0.5 (≈ 0.272 µM) | 1 (≈ 0.544 µM) | ≤ 0.06 | 2 (≈ 1.09 µM) | 16 (≈ 8.7 µM) | > 64 | 1 (≈ 0.544 µM) | ≤ 0.06 | > 64 | ≤ 0.06 | 8 (≈ 4.35 µM) | 1 (≈ 0.544 µM) | 8 (≈ 4.35 µM) | 16 (≈ 8.7 µM) | 1 (≈ 0.544 µM) | 0.5 (≈ 0.272 µM) | 0.25 (≈ 0.136 µM) | 0.25 (≈ 0.136 µM) | 0.125 (≈ 0.0679 µM) | 0.25 (≈ 0.136 µM) | MIC [21]: 0.5 µg/mL (≈ 0.272 µM)

— patent publication US5843889A, “Glycopeptide antibiotic derivatives” (Eli Lilly and Company, priority 1997, dated 1998)
